Among the data in US20240294595A1, “GLYCOPEPTIDES AND USES THEREOF” (Arizona Board of Regents on Behalf of the University of …, priority 2013, published 2024) are EC50 and Emax values, retold here.

Format in all cases: cell-based
The target in one assay is T1, PAC1 (Homo sapiens, UniProt P41586).
T1 sequence (P41586 21-468): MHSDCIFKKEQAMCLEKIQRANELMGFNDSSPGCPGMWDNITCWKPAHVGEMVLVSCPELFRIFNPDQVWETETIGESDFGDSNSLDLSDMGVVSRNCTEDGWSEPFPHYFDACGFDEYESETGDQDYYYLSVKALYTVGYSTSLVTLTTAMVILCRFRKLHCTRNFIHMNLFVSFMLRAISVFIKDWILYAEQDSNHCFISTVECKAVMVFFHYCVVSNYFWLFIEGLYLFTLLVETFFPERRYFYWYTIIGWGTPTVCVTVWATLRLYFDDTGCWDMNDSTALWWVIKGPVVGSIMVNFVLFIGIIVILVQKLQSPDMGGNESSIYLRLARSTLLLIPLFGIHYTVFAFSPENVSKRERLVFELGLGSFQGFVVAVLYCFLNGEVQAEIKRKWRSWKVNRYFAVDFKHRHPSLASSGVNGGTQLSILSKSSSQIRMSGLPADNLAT
As to the kind of experiment: PAC1 agonist data (Table 2). The arrangement: host or cells: CHO (clonal line PAC1-CHO). As to the method:
A custom DNA clone of the human PAC1 gene with 3 hemagglutinin (HA) tags inserted 3′ to the signal peptide sequence (to avoid proteolytic loss) was obtained from Genecopoeia (Rockville, MD). The construct was electroporated into Chinese Hamster Ovary (CHO) cells, and selected for with 500 μg/mL of G418. The resulting population was screened for high expressing clones, and one such clone selected for further analysis. […] This cell line was used for all molecular pharmacology experiments. The cells were maintained in DMEM/F12 with 10% heat-inactivated FBS, 1× penicillin/streptomycin, and 500 μg/mL G418, at 37° C. and 5% CO2.
All molecular pharmacology experiments were carried out using a FLIPR Tetra from Molecular Devices (Sunnyvale, CA), set to image calcium flux using the manufacturer's recommended settings and protocols. The day before an experiment, the PAC1-CHO cells were split into 384 well black walled, clear bottom microplates, 10,000 cells per well. The cells were recovered overnight in growth medium (as above). The next day, the growth medium was replaced with Calcium 6 dye (Molecular Devices) using the manufacturer recommended buffer with 2.5 mM probenecid. The cells were incubated for 2 hours in the culture incubator, and removed during the last 15 minutes to allow equilibration to room temperature. Compound as indicated below was added to the cells using a 384 tip block, with real time monitoring before, during, and 15 minutes after compound addition. The resulting calcium flux was recorded, and the maximum-minimum response over the entire observation time calculated and reported as the mean±SEM (4 wells per point).
For agonist mode experiments, compound was added in an 11 point concentration curve, with a vehicle control (buffer). […] The response was analyzed using a 3 variable non-linear curve fit, and the EC50 (nM) and EMax (%) calculated and reported (Prism, GraphPad, La Jolla, CA).

A further assay deals with T2, VPAC2 (Homo sapiens, UniProt P41587).
T2 sequence (P41587 24-438): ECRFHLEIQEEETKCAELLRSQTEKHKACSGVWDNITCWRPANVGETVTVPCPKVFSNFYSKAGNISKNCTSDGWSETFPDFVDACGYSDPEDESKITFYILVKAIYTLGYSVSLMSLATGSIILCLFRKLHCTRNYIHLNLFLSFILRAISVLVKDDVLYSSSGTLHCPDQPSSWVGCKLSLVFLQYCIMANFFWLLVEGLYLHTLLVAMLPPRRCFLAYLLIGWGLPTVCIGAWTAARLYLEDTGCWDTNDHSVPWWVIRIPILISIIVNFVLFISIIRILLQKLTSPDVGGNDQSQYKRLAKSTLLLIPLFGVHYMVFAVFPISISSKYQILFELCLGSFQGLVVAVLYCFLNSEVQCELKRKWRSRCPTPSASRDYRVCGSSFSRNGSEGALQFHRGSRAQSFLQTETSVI
As to the kind of experiment: VPAC2 agonist data (Table 2).

The next assay concerns the target T3, VPAC1 (Homo sapiens, UniProt P32241).
T3 sequence (P32241 31-457): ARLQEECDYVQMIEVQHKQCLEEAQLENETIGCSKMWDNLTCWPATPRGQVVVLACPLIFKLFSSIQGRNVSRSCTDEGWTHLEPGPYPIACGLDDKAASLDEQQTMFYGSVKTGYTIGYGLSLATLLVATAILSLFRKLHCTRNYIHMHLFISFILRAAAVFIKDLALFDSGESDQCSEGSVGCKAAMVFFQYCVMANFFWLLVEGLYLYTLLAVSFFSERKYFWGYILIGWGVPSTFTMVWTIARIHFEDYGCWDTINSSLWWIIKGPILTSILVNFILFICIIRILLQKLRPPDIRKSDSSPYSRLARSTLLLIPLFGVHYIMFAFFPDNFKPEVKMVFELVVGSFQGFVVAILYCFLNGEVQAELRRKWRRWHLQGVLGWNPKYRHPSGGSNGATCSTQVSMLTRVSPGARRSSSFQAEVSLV
Briefly: VPAC1 agonist data (Table 2).

Where a SMILES comes first, the peptide text is derived from it. [ ]: non-standard residue; d: D form. The star is where a group is joined. βGlc = OC[C@H]1O[C@@H](*)[C@H](O)[C@@H](O)[C@@H]1O; Nle = CCCC[C@H](N)C(=O)O Bounds are passed on as bounds.

The term EC50 denotes the concentration giving half of the maximal effect. Low readings indicate an effect from little substance, high ones a need for much substance. In general, Emax refers to the size of the effect at its maximum, as opposed to the concentration needed. As to `CCCC[C@H](NC(=O)[C@H](CCC(N)=O)NC(=O)[C@H](CCCCN)NC(=O)[C@H](CCCNC(=N)N)NC(=O)[C@H](Cc1ccc(O)cc1)NC(=O)[C@H](CCCNC(=N)N)NC(=O)[C@H](CO)NC(=O)[C@H](Cc1ccc(O)cc1)NC(=O)[C@H](CO)NC(=O)[C@H](CC(=O)O)NC(=O)[C@@H](NC(=O)[C@H](Cc1ccccc1)NC(=O)[C@@H](NC(=O)CNC(=O)[C@H](CC(=O)O)NC(=O)[C@@H](CO)NC(=O)[C@@H](N)Cc1c[nH]cn1)[C@@H](C)CC)[C@@H](C)O)C(=O)N[C@@H](C)C(=O)N[C@H](C(=O)N[C@@H](CCCCN)C(=O)N[C@@H](CCCCN)C(=O)N[C@@H](Cc1ccc(O)cc1)C(=O)N[C@@H](CC(C)C)C(=O)N[C@@H](C)C(=O)N[C@@H](C)C(=O)N[C@H](C(=O)N[C@@H](CO[C@@H]1O[C@H](CO)[C@@H](O)[C@H](O)[C@H]1O)C(N)=O)C(C)C)C(C)C`, the EC50 came to 54.5 nM on PAC1, 654 nM on VPAC2 and 4.8 nM on VPAC1. For the same compound, the Emax at PAC1 is 86%; on VPAC2, 107%; at VPAC1 it was 90%.
In the case of `CCCC[C@H](NC(=O)[C@H](CCC(N)=O)NC(=O)[C@H](CCCCN)NC(=O)[C@H](CCCNC(=N)N)NC(=O)[C@H](Cc1ccc(O)cc1)NC(=O)[C@H](CCCNC(=N)N)NC(=O)[C@H](CO)NC(=O)[C@H](Cc1ccc(O)cc1)NC(=O)[C@H](CO)NC(=O)[C@H](CC(=O)O)NC(=O)[C@@H](NC(=O)[C@H](Cc1ccccc1)NC(=O)[C@@H](NC(=O)CNC(=O)[C@H](CC(=O)O)NC(=O)[C@@H](CO)NC(=O)[C@@H](N)Cc1c[nH]cn1)[C@@H](C)CC)[C@@H](C)O)C(=O)N[C@@H](C)C(=O)N[C@H](C(=O)N[C@@H](CCCCN)C(=O)N[C@@H](CCCCN)C(=O)N[C@@H](Cc1ccc(O)cc1)C(=O)N[C@@H](CC(C)C)C(=O)N[C@@H](C)C(=O)N[C@@H](C)C(=O)N[C@H](C(=O)N[C@@H](CC(C)C)C(=O)N[C@@H](CO[C@@H]1O[C@H](CO)[C@@H](O)[C@H](O)[C@H]1O)C(N)=O)C(C)C)C(C)C`, the figures for the 50% effective concentration (EC50) at PAC1, at VPAC2 and at VPAC1 were 25.5 nM, 241 nM and 1.3 nM, respectively. For the same compound, the values for the Emax on PAC1, at VPAC2 and at VPAC1 were 85%, 104% and 90%, respectively.
Turning to `CCCC[C@H](NC(=O)[C@H](CCC(N)=O)NC(=O)[C@H](CCCCN)NC(=O)[C@H](CCCNC(=N)N)NC(=O)[C@H](Cc1ccc(O)cc1)NC(=O)[C@H](CCCNC(=N)N)NC(=O)[C@H](CO)NC(=O)[C@H](Cc1ccc(O)cc1)NC(=O)[C@H](CO)NC(=O)[C@H](CC(=O)O)NC(=O)[C@H](C)NC(=O)[C@H](Cc1ccccc1)NC(=O)[C@@H](NC(=O)CNC(=O)[C@H](CC(=O)O)NC(=O)[C@@H](CO)NC(=O)[C@@H](N)Cc1c[nH]cn1)[C@@H](C)CC)C(=O)N[C@@H](C)C(=O)N[C@H](C(=O)N[C@@H](CCCCN)C(=O)N[C@@H](CCCCN)C(=O)N[C@@H](Cc1ccc(O)cc1)C(=O)N[C@@H](CC(C)C)C(=O)N[C@@H](C)C(=O)N[C@@H](C)C(=O)N[C@H](C(=O)N[C@@H](CO[C@@H]1O[C@H](CO)[C@@H](O)[C@H](O)[C@H]1O)C(N)=O)C(C)C)C(C)C` (H-H[dS]DGIFADSYSRYRKQ[Nle]AVKKYLAAVS(βGlc)-NH2; C-terminus assumed), at VPAC1, the midpoint of the response, the EC50, lay at 1370 nM and the Emax was 85%.
The matching figures for `CCCC[C@H](NC(=O)[C@H](CCC(N)=O)NC(=O)[C@H](CCCCN)NC(=O)[C@H](CCCNC(=N)N)NC(=O)[C@H](Cc1ccc(O)cc1)NC(=O)[C@H](CCCNC(=N)N)NC(=O)[C@H](CO)NC(=O)[C@H](Cc1ccc(O)cc1)NC(=O)[C@H](CO)NC(=O)[C@H](CC(=O)O)NC(=O)[C@H](C)NC(=O)[C@H](Cc1ccccc1)NC(=O)[C@@H](NC(=O)CNC(=O)[C@H](CC(=O)O)NC(=O)[C@@H](CO)NC(=O)[C@@H](N)Cc1c[nH]cn1)[C@@H](C)CC)C(=O)N[C@@H](C)C(=O)N[C@H](C(=O)N[C@@H](CCCCN)C(=O)N[C@@H](CCCCN)C(=O)N[C@@H](Cc1ccc(O)cc1)C(=O)N[C@@H](CC(C)C)C(=O)N[C@@H](C)C(=O)N[C@@H](C)C(=O)N[C@H](C(=O)N[C@@H](CO[C@@H]1O[C@H](CO)[C@@H](O)[C@H](O)[C@H]1O)C(=O)N[C@@H](CC(C)C)C(N)=O)C(C)C)C(C)C` (H-H[dS]DGIFADSYSRYRKQ[Nle]AVKKYLAAVS(βGlc)L-NH2; C-terminus assumed): 1620 nM and 78%.
As for `CCCC[C@H](NC(=O)[C@H](CCC(N)=O)NC(=O)[C@H](CCCCN)NC(=O)[C@H](CCCNC(=N)N)NC(=O)[C@H](Cc1ccc(O)cc1)NC(=O)[C@H](CCCNC(=N)N)NC(=O)[C@H](CO)NC(=O)[C@H](Cc1ccc(O)cc1)NC(=O)[C@H](CO)NC(=O)[C@H](CC(=O)O)NC(=O)[C@@H](NC(=O)[C@H](Cc1ccccc1)NC(=O)[C@@H](NC(=O)CNC(=O)[C@H](CC(=O)O)NC(=O)[C@@H](CO)NC(=O)[C@@H](N)Cc1c[nH]cn1)[C@@H](C)CC)[C@@H](C)O)C(=O)N[C@@H](C)C(=O)N[C@H](C(=O)N[C@@H](CCCCN)C(=O)N[C@@H](CCCCN)C(=O)N[C@@H](Cc1ccc(O)cc1)C(=O)N[C@@H](CC(C)C)C(=O)N[C@@H](C)C(=O)N[C@@H](C)C(=O)N[C@@H](CC(C)C)C(=O)N[C@@H](CO[C@@H]1O[C@H](CO)[C@@H](O)[C@H](O)[C@H]1O)C(=O)N[C@@H](CC(C)C)C(N)=O)C(C)C` (H-H[dS]DGIFTDSYSRYRKQ[Nle]AVKKYLAALS(βGlc)L-NH2; C-terminus assumed), the results for the EC50 on PAC1, on VPAC2 and on VPAC1 were greater than 250 nM, greater than 2500 nM and 5.9 nM, respectively. Moreover, the figures for the Emax on PAC1, on VPAC2 and at VPAC1 were -79%, -95% and 93%, respectively.
